Literature values in paper PMC10338470, “Phase 1 study of GSK3368715, a type I PRMT inhibitor, in patients with advanced solid tumors” (British Journal of Cancer, 2023).

Tested on: adenoid cystic carcinoma
Set-up: method as in doi:10.1016/j.annonc.2020.08.651
Conditions: patients with adenoid cystic carcinoma ref [18]; cited from earlier work

Q: For `Nc1nc2cc(CC[C@H]3C[C@@H](n4ccc5c(N)ncnc54)[C@H](O)[C@@H]3O)ccc2cc1Br` [JNJ64619178], which Partial response rate is on record?
A: The Partial response rate was 13%.
